For assay [1], the target named is T1, human thyroid hormone receptors TRβ1 (Homo sapiens, UniProt P10828).
T1 construct: made in house; host or cells: Sf9 insect cells (baculovirus)
T1 sequence (P10828 1-461): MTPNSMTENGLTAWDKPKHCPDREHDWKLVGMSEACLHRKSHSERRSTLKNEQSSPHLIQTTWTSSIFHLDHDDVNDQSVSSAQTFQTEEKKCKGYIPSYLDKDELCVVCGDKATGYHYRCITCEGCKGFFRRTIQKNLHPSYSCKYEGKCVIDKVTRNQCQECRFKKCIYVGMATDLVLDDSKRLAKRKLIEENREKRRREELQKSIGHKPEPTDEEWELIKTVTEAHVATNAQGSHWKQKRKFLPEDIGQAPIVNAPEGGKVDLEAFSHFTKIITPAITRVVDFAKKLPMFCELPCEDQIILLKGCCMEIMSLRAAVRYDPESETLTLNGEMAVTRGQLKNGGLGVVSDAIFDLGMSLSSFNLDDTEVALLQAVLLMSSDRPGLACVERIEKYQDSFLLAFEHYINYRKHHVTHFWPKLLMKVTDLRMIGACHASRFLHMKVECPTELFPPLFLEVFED
T1 sequence (P19793 1-462 partner): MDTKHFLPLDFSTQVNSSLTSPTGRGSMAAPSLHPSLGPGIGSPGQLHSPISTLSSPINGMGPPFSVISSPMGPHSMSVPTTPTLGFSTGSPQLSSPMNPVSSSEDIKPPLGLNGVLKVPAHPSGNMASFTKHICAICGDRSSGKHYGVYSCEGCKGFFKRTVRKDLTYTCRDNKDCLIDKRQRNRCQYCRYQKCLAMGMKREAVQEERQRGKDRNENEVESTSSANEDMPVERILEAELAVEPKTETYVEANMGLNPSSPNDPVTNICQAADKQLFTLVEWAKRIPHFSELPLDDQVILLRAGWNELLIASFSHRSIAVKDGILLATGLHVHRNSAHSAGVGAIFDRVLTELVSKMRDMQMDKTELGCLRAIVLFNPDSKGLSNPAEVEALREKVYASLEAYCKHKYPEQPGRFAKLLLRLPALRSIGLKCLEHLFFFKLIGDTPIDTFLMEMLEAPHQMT
As to the kind of experiment: Receptor binding to TRβ1 (gel filtration and scintillation proximity assay, labeled T3). The settings on record: read-out: Ki TRβ. (Size exclusion chromatography separates by hydrodynamic size, large species first.)

Assay [2] addresses T2, human thyroid hormone receptors TRα1 (Homo sapiens, UniProt P10827).
T2 construct: made in house; host or cells: Sf9 insect cells (baculovirus)
T2 sequence (P10827 1-410 isoform P10827-2): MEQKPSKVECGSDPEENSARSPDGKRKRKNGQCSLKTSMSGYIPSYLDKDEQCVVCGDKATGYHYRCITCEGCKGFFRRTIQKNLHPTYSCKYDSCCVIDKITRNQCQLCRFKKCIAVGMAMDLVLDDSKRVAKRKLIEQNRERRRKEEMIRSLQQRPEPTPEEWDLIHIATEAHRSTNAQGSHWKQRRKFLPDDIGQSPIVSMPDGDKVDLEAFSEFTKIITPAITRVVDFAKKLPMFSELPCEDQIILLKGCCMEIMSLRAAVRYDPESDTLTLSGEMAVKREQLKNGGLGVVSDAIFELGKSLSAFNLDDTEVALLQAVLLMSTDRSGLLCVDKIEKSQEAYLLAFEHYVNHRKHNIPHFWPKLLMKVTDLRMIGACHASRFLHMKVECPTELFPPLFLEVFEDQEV
T2 sequence (P19793 1-462 partner): T1 sequence (P19793 1-462 partner)
Description: Receptor binding to TRα1 (gel filtration and scintillation proximity assay, labeled T3). Conditions: read-out: Ki TRα.

The test system of assay [3] is plasma cholesterol. Description: Cholesterol lowering in hypercholesterolemic rats. In kind it is in vivo. The settings on record: percentage change from pre-dose cholesterol; for change in vivo at 0.2 mg/kg/day: Rattus norvegicus, read-out: % Cholesterol Lowering.
[4] abbreviates: ip, delivered i.p (0.2 mg/kg/d).
Where [5] appears, read: po, delivered p.o. (0.2 mg/kg/d).

Read-outs that look alike come from different tables or passages of the source. A value given as a limit tells only on which side of the number the result lay.

As for `Cc1cc(OCP(=O)(O)O)cc(C)c1Cc1ccc(O)c(C2CC2)c1` [Compound 48, [4-(3′-cyclopropyl-4′-hydroxybenzyl)-3,5-dimethylphenoxy]methylphosphonic acid], the inhibition constant Ki (in general, a dissociation constant, usually derived from enzyme kinetics or from competition with a known ligand) is 9 nM in assay [1] (SPA data) and 129 nM in assay [2] (SPA data). In addition, the change in vivo at 0.2 mg/kg/day in assay [3] (setting [4]) is -23.4%.

Turning to `CC(C)c1cc(Oc2c(I)cc(OCP(=O)(O)O)cc2I)ccc1O` [Compound 8, [3,5-diiodo-4-(4′-hydroxy-3′-iso-propylphenoxy)phenoxy]methylphosphonic acid], the values for the inhibition constant (Ki) in assay [1] and in assay [2] were 0.97 nM and 3.74 nM, respectively. The figures for the change in vivo at 0.2 mg/kg/day in assay [3] (setting [4]) and in assay [3] (setting [5]) were -24.3% and -20.6%, respectively.

Consider `Cc1cc(OCP(=O)(O)O)cc(C)c1Cc1ccc(O)c(Cc2ccccc2)c1` [Compound 38, [4-(3′-benzyl-4′-hydroxy-benzyl)-3,5-dimethylphenoxy]methylphosphonic acid], for which the values for the Ki in assay [1] (SPA data) and in assay [2] (SPA data) were 5.4 nM and 254 nM, respectively. In addition, the change in vivo at 0.2 mg/kg/day in assay [3] (setting [4]) was -21.7%.

On to `Cc1cc(OCP(=O)(O)O)c(I)c(C)c1Cc1ccc(O)c(C(C)C)c1` [Compound 46, [3,5-Dimethyl-4-(4′-hydroxy-3′-iso-propylbenzyl)-2-iodophenoxy]methylphosphonic Acid], for which the Ki was 2 nM in assay [1] (SPA data) and 20 nM in assay [2] (SPA data). Further, the results for the change in vivo at 0.2 mg/kg/day in assay [3] (setting [4]) and in assay [3] (setting [5]) were -29.6% and -23.8%, respectively.

As to `Cc1cc(/C=C/P(=O)(O)O)cc(C)c1Oc1ccc(O)c(C(C)C)c1` [Compound 28, trans-2-[3,5-dimethyl-4-(4′-hydroxy-3′-iso-propylphenoxy)phenyl]vinylphosphonic acid], the Ki worked out at 14 nM in assay [1] (SPA data) and 375 nM in assay [2] (SPA data). Further, in assay [3] (setting [4]), the change in vivo at 0.2 mg/kg/day was -20.5%.

Consider `Cc1cc2[nH]c(P(=O)(O)O)cc2c(C)c1Oc1ccc(O)c(C(C)C)c1` [Compound 66], for which the Ki in assay [1] (SPA data) was found to be 121 nM; in assay [2] (SPA data), 863 nM. The change in vivo at 0.2 mg/kg/day was -42.9% in assay [3] (setting [4]) and -12.5% in assay [3] (setting [5]).

Consider `CCC(C)c1cc(Cc2c(C)cc(OCP(=O)(O)O)cc2C)ccc1O` (centres unmarked) [Compound 7-3, [3,5-dimethyl-4-(3′-sec-butyl-4′-hydroxybenzyl)phenoxy]methylphosphonic acid], for which the inhibition constant (Ki) in assay [1] (SPA data) stood at 6.6 nM; in assay [2] (SPA data) it was 31 nM. Further, the change in vivo at 0.2 mg/kg/day in assay [3] (setting [4]) was -45.4%; in assay [3] (setting [5]), -36.5%.

As to `Cc1cc(S(=O)(=O)CP(=O)(O)O)cc(C)c1Cc1ccc(O)c(C(C)C)c1` [Compound 52, [3,5-dimethyl-4-(4′-Hydroxy-3′-iso-propylbenzyl)benzenesulfonyl]methylphosphonic acid], the Ki in assay [1] (SPA data) is 48 nM; in assay [2] (SPA data), more than 2000 nM. For the same molecule, the change in vivo at 0.2 mg/kg/day in assay [3] (setting [4]) is -18.8%.

For the molecule `O=P(O)(O)Cc1cc(I)c(Oc2ccc(O)c(I)c2)c(I)c1` [Compound 6, 3,5-diiodo-4-(4′-hydroxy-3′-iodophenoxy)benzylphosphonic acid], the results for the Ki in assay [1] and in assay [2] (SPA data) were 26 nM and 16 nM, respectively. In addition, in assay [3] (setting [4]), the change in vivo at 0.2 mg/kg/day is -20.5%.

With `CC(C)c1cc(Oc2c(Br)cc(CP(C)(=O)O)cc2Br)ccc1O` [Compound 71, [3,5-Dibromo-4-(4′-hydroxy-3′-isopropylphenoxy)benzyl]methylphosphinic Acid], the Ki came to 0.4 nM in assay [1] (SPA data) and 4 nM in assay [2] (SPA data). Moreover, the change in vivo at 0.2 mg/kg/day in assay [3] (setting [5]) is -54.4%.

In the case of `CC(C)c1cc(Oc2c(Cl)cc(NCP(=O)(O)O)cc2Cl)ccc1O` [Compound 22, [3,5-dichloro-4-(4′-hydroxy-3′-iso-propylphenoxy)phenylamino]methylphosphonic acid], the figures for the inhibition constant (Ki) in assay [1] (SPA data) and in assay [2] (SPA data) were 31 nM and 186 nM, respectively. Also, the change in vivo at 0.2 mg/kg/day in assay [3] (setting [4]) is -44%; in assay [3] (setting [5]) it was -16.5%.

For `Cc1cc(OCP(=O)(O)O)cc(C)c1Cc1ccc(O)c(C(=O)NCCc2ccccc2)c1` [Compound 37, [3,5-dimethyl-4-(4′-hydroxy-3′-phenethylcarbamoylbenzyl)phenoxy]methylphosphonic acid], the inhibition constant (Ki) worked out at 23 nM in assay [1] (SPA data) and 294 nM in assay [2] (SPA data). Also, the change in vivo at 0.2 mg/kg/day in assay [3] (setting [4]) is -0.4%.

With `Cc1cc(OC(F)(F)P(=O)(O)O)cc(C)c1Cc1ccc(O)c(C(C)C)c1` [Compound 7-6, difluoro-[3,5-dimethyl-4-(4′-hydroxy-3′-iso-propylbenzyl)phenoxy]methylphosphonic acid], the figures for the Ki in assay [1] (SPA data) and in assay [2] (SPA data) were 7.6 nM and 98 nM, respectively. In addition, the change in vivo at 0.2 mg/kg/day in assay [3] (setting [4]) was -13.5%.

For `CC(C)c1cc(Oc2c(Br)cc(CCP(=O)(O)O)cc2Br)ccc1O` [Compound 67, 2-[3,5-dibromo-4-(4′-hydroxy-3′-isopropylphenoxy)phenyl]ethylphosphonic Acid], the Ki in assay [1] (SPA data) was 1.8 nM; in assay [2] (SPA data), 37 nM. For the same molecule, the change in vivo at 0.2 mg/kg/day in assay [3] (setting [5]) was -17%.

In the case of `Cc1cc(/C=C/P(=O)(O)O)cc(C)c1Cc1ccc(O)c(C(C)C)c1` [Compound 24-2, trans-2-[3,5-dimethyl-4-(4′-hydroxy-3′-iso-propylbenzyl)phenyl]vinylphosphonic acid], the Ki is 24 nM in assay [1] (SPA data) and more than 2000 nM in assay [2] (SPA data). Further, the change in vivo at 0.2 mg/kg/day in assay [3] (setting [4]) was -20.5%.

In the case of `Cc1cc(CCCP(=O)(O)O)cc(C)c1Oc1ccc(O)c(C(C)C)c1` [Compound 29, 3-[3,5-dimethyl-4-(4′-hydroxy-3′-iso-propylphenoxy)phenyl]propylphosphonic acid], the Ki is 47 nM in assay [1] (SPA data) and 661 nM in assay [2] (SPA data). The change in vivo at 0.2 mg/kg/day in assay [3] (setting [4]) is -21.9%.

With `Cc1cc(OCP(=O)(O)O)cc(C)c1Cc1ccc(O)c(-c2ccccc2)c1` [Compound 7-1, [3,5-dimethyl-4-(4′-hydroxy-3′-phenylbenzyl)phenoxy]methylphosphonic acid], the inhibition constant (Ki) in assay [1] (SPA data) stood at 106 nM; in assay [2], 1170 nM. Further, the change in vivo at 0.2 mg/kg/day in assay [3] (setting [5]) was -12.2%.

Take “[3,5-dimethyl-4-(4′-Hydroxy-3′-iso-propyl-phenyl)methoxymethyl]phenoxy]methylphosphonic acid [Compound 33]”: the figures for the Ki in assay [1] (SPA data) and in assay [2] (SPA data) were 16.7 nM and 267 nM, respectively. In addition, in assay [3] (delivered i.p (0.2 mg/kg/d)), the “% Cholesterol Lowering” value is −32.5%.

With `Cc1cc(NCP(=O)(O)O)cc(C)c1Cc1ccc(O)c(C(C)C)c1` [Compound 47, [3,5-Dimethyl 4-(4′-hydroxy-3′-iso-propylbenzyl)-phenylamino]methylphosphonic Acid], the Ki in assay [1] (SPA data) is 2.5 nM; in assay [2] (SPA data) it was 24.3 nM. Besides, the change in vivo at 0.2 mg/kg/day in assay [3] (setting [4]) was -29.3%.

As for `Cc1cc(OCP(=O)(O)O)cc(C)c1Cc1ccc(F)c(C(C)C)c1` [Compound 27, [3,5-dimethyl-4-(4′-fluoro-3′-iso-propylbenzyl)phenoxy]methylphosphonic acid], the Ki in assay [1] (SPA data) and in assay [2] (SPA data) was more than 2000 nM throughout. In addition, in assay [3] (setting [4]), the change in vivo at 0.2 mg/kg/day was -20.8%.

With `Cc1cc(OCP(=O)(O)O)cc(C)c1Oc1ccc(O)c(C(C)C)c1` [Compound 31, [3,5-dimethyl-4-(4′-hydroxy-3′-iso-propylphenoxy)phenoxy]methylphosphonic acid], the Ki in assay [1] (SPA data) was found to be 73 nM; in assay [2] (SPA data), 540 nM. In addition, in assay [3] (setting [4]), the change in vivo at 0.2 mg/kg/day is -21.1%.

`CC(C)c1cc(Oc2c(Cl)cc(CP(=O)(O)O)cc2Cl)ccc1O` [Compound 19, [3,5-dichloro-4-(4′-hydroxy-3′-iso-propylphenoxy)]benzylphosphonic acid]: the values for the Ki in assay [1] and in assay [2] were 52 nM and 304 nM, respectively. In addition, the change in vivo at 0.2 mg/kg/day in assay [3] (setting [4]) was -19%.

For `Cc1cc(CCP(=O)(O)O)cc(C)c1Cc1ccc(O)c(Cc2ccccc2)c1` [Compound 42, 2-[3,5-dimethyl-4-[3′-benzyl-4′-hydroxy-benzyl]phenyl]-ethylphosphonic acid], the Ki in assay [1] (SPA data) was 16.2 nM; in assay [2] (SPA data) it was 794 nM. Besides, the change in vivo at 0.2 mg/kg/day in assay [3] (setting [4]) is -28.8%.

Values taken from patent US20090028925A1, “Novel Phosphinic Acid-Containing Thyromimetics” (priority 2005, published 2009).
